Assay results published in patent US5843889A, “Glycopeptide antibiotic derivatives” (Eli Lilly and Company, priority 1997, dated 1998).
In brackets after ≈: the same amount, converted by molar mass.

Assays:
Assay in all cases: MIC, standard broth micro-dilution assay
Type in all cases: cell-based
[1] = test system: Entercoccus faecalis 276
Protocol: (§1) The formula I compounds have in vitro and in vivo activity against Gram-positive pathogenic bacteria. The MIC's were determined using a standard broth micro-dilution assay.

[2] = test system: Entercoccus gallinarum 245
Protocol: as §1

[3] = test system: Entercoccus faecalis 2041
Protocol: as §1

Compound | MIC [1] | MIC [2] | MIC [3]
CNC(CC(C)C)C(=O)NC1C(=O)NC(CC(N)=O)C(=O)NC2C(=O)NC3C(=O)NC(C(=O)NC(C(=O)O)c4cc(O)cc(O)c4-c4cc3ccc4O)C(OC3CC(C)(N)C(O)C(C)O3)c3ccc(c(Cl)c3)Oc3cc2cc(c3OC2OC(CO)C(O)C(O)C2OC2CC(C)(NCc3c4ccccc4c(C)c4ccccc34)C(O)C(C)O2)Oc2ccc(cc2Cl)C1O (stereo not drawn) [Compound 17, 9-[10-methyl]anthranylmethyl] | 0.5 µg/mL (≈ 0.278 µM) | 0.5 µg/mL (≈ 0.278 µM) | 0.25 µg/mL (≈ 0.139 µM)
CNC(CC(C)C)C(=O)NC1C(=O)NC(CC(N)=O)C(=O)NC2C(=O)NC3C(=O)NC(C(=O)NC(C(=O)O)c4cc(O)cc(O)c4-c4cc3ccc4O)C(OC3CC(C)(N)C(O)C(C)O3)c3ccc(c(Cl)c3)Oc3cc2cc(c3OC2OC(CO)C(O)C(O)C2OC2CC(C)(NCc3cccnc3)C(O)C(C)O2)Oc2ccc(cc2Cl)C1O (stereo not drawn) [Compound 24, 3-pyridylmethyl] | 0.25 µg/mL (≈ 0.148 µM) | 0.25 µg/mL (≈ 0.148 µM) | ≤ 0.06 µg/mL
CNC(CC(C)C)C(=O)NC1C(=O)NC(CC(N)=O)C(=O)NC2C(=O)NC3C(=O)NC(C(=O)NC(C(=O)O)c4cc(O)cc(O)c4-c4cc3ccc4O)C(OC3CC(C)(N)C(O)C(C)O3)c3ccc(c(Cl)c3)Oc3cc2cc(c3OC2OC(CO)C(O)C(O)C2OC2CC(C)(NCc3cc4ccccc4s3)C(O)C(C)O2)Oc2ccc(cc2Cl)C1O (stereo not drawn) [Compound 19, 2-benzthienylmethyl] | ≤ 0.06 µg/mL | ≤ 0.06 µg/mL | ≤ 0.06 µg/mL
CNC(CC(C)C)C(=O)NC1C(=O)NC(CC(N)=O)C(=O)NC2C(=O)NC3C(=O)NC(C(=O)NC(C(=O)O)c4cc(O)cc(O)c4-c4cc3ccc4O)C(OC3CC(C)(N)C(O)C(C)O3)c3ccc(c(Cl)c3)Oc3cc2cc(c3OC2OC(CO)C(O)C(O)C2OC2CC(C)(NCc3cccc(OC(=O)C4CCCCC4)c3)C(O)C(C)O2)Oc2ccc(cc2Cl)C1O (stereo not drawn) [Compound 165, 3-cyclohexanoyloxybenzyl] | 0.5 µg/mL (≈ 0.276 µM) | 4 µg/mL (≈ 2.21 µM) | ≤ 0.06 µg/mL
CNC(CC(C)C)C(=O)NC1C(=O)NC(CC(N)=O)C(=O)NC2C(=O)NC3C(=O)NC(C(=O)NC(C(=O)O)c4cc(O)cc(O)c4-c4cc3ccc4O)C(OC3CC(C)(N)C(O)C(C)O3)c3ccc(c(Cl)c3)Oc3cc2cc(c3OC2OC(CO)C(O)C(O)C2OC2CC(C)(NCc3ccc(OC)c4ccccc34)C(O)C(C)O2)Oc2ccc(cc2Cl)C1O (stereo not drawn) [Compound 15, 4-methoxy-1-naphthylmethyl] | ≤ 0.06 µg/mL | ≤ 0.06 µg/mL | ≤ 0.06 µg/mL
CNC(CC(C)C)C(=O)NC1C(=O)NC(CC(N)=O)C(=O)NC2C(=O)NC3C(=O)NC(C(=O)NC(C(=O)O)c4cc(O)cc(O)c4-c4cc3ccc4O)C(OC3CC(C)(N)C(O)C(C)O3)c3ccc(c(Cl)c3)Oc3cc2cc(c3OC2OC(CO)C(O)C(O)C2OC2CC(C)(NCc3c4ccccc4c(Cl)c4ccccc34)C(O)C(C)O2)Oc2ccc(cc2Cl)C1O (stereo not drawn) [Compound 18, 9-[10-chloro]anthranylmethyl] | 1 µg/mL (≈ 0.55 µM) | 1 µg/mL (≈ 0.55 µM) | 0.25 µg/mL (≈ 0.138 µM)
CNC(CC(C)C)C(=O)NC1C(=O)NC(CC(N)=O)C(=O)NC2C(=O)NC3C(=O)NC(C(=O)NC(C(=O)O)c4cc(O)cc(O)c4-c4cc3ccc4O)C(OC3CC(C)(N)C(O)C(C)O3)c3ccc(c(Cl)c3)Oc3cc2cc(c3OC2OC(CO)C(O)C(O)C2OC2CC(C)(NCc3cncc(-c4ccccc4)c3)C(O)C(C)O2)Oc2ccc(cc2Cl)C1O (stereo not drawn) [Compound 151, 5-phenyl-3-pyridinylmethyl] | ≤ 0.06 µg/mL | 4 µg/mL (≈ 2.27 µM) | ≤ 0.06 µg/mL
4-[3-trifluoromethylphenoxy]-3-nitrobenzyl [Compound 114] | 1 µg/mL | 2 µg/mL | 0.25 µg/mL
CNC(CC(C)C)C(=O)NC1C(=O)NC(CC(N)=O)C(=O)NC2C(=O)NC3C(=O)NC(C(=O)NC(C(=O)O)c4cc(O)cc(O)c4-c4cc3ccc4O)C(OC3CC(C)(N)C(O)C(C)O3)c3ccc(c(Cl)c3)Oc3cc2cc(c3OC2OC(CO)C(O)C(O)C2OC2CC(C)(NCc3cccc(OC4CCCCC4)c3)C(O)C(C)O2)Oc2ccc(cc2Cl)C1O (stereo not drawn) [Compound 153] | 0.5 µg/mL (≈ 0.281 µM) | 1 µg/mL (≈ 0.562 µM) | ≤ 0.06 µg/mL
CNC(CC(C)C)C(=O)NC1C(=O)NC(CC(N)=O)C(=O)NC2C(=O)NC3C(=O)NC(C(=O)NC(C(=O)O)c4cc(O)cc(O)c4-c4cc3ccc4O)C(OC3CC(C)(N)C(O)C(C)O3)c3ccc(c(Cl)c3)Oc3cc2cc(c3OC2OC(CO)C(O)C(O)C2OC2CC(C)(NCC3=CCC4CC3C4(C)C)C(O)C(C)O2)Oc2ccc(cc2Cl)C1O (stereo not drawn) [Compound 170] | 0.5 µg/mL (≈ 0.29 µM) | 4 µg/mL (≈ 2.32 µM) | ≤ 0.06 µg/mL
CNC(CC(C)C)C(=O)NC1C(=O)NC(CC(N)=O)C(=O)NC2C(=O)NC3C(=O)NC(C(=O)NC(C(=O)O)c4cc(O)cc(O)c4-c4cc3ccc4O)C(OC3CC(C)(N)C(O)C(C)O3)c3ccc(c(Cl)c3)Oc3cc2cc(c3OC2OC(CO)C(O)C(O)C2OC2CC(C)(NCCCCCCCCBr)C(O)C(C)O2)Oc2ccc(cc2Cl)C1O (stereo not drawn) [Compound 198, 8-bromooctyl] | 0.25 µg/mL (≈ 0.14 µM) | 1 µg/mL (≈ 0.561 µM) | ≤ 0.06 µg/mL
CNC(CC(C)C)C(=O)NC1C(=O)NC(CC(N)=O)C(=O)NC2C(=O)NC3C(=O)NC(C(=O)NC(C(=O)O)c4cc(O)cc(O)c4-c4cc3ccc4O)C(OC3CC(C)(N)C(O)C(C)O3)c3ccc(c(Cl)c3)Oc3cc2cc(c3OC2OC(CO)C(O)C(O)C2OC2CC(C)(NCc3cccc(OC(C)=O)c3)C(O)C(C)O2)Oc2ccc(cc2Cl)C1O (stereo not drawn) [Compound 77, 3-acetoxybenzyl] | 0.25 µg/mL (≈ 0.144 µM) | 0.25 µg/mL (≈ 0.144 µM) | 0.25 µg/mL (≈ 0.144 µM)
CNC(CC(C)C)C(=O)NC1C(=O)NC(CC(N)=O)C(=O)NC2C(=O)NC3C(=O)NC(C(=O)NC(C(=O)O)c4cc(O)cc(O)c4-c4cc3ccc4O)C(OC3CC(C)(N)C(O)C(C)O3)c3ccc(c(Cl)c3)Oc3cc2cc(c3OC2OC(CO)C(O)C(O)C2OC2CC(C)(NCCCCC3CCCCC3)C(O)C(C)O2)Oc2ccc(cc2Cl)C1O (stereo not drawn) [Compound 205, 4-cyclohexylbutyl] | 0.5 µg/mL (≈ 0.289 µM) | 1 µg/mL (≈ 0.578 µM) | 0.25 µg/mL (≈ 0.144 µM)
CCCOC(c1ccccc1)c1ccc(CNC2(C)CC(OC3C(Oc4c5cc6cc4Oc4ccc(cc4Cl)C(OC4CC(C)(N)C(O)C(C)O4)C4NC(=O)C(NC(=O)C6NC(=O)C(CC(N)=O)NC(=O)C(NC(=O)C(CC(C)C)NC)C(O)c6ccc(c(Cl)c6)O5)c5ccc(O)c(c5)-c5c(O)cc(O)cc5C(C(=O)O)NC4=O)OC(CO)C(O)C3O)OC(C)C2O)cc1 (stereo not drawn) [Compound 128, 4-[alpha-propoxybenzyl]benzyl] | 1 µg/mL (≈ 0.546 µM) | 2 µg/mL (≈ 1.09 µM) | 0.5 µg/mL (≈ 0.273 µM)
CNC(CC(C)C)C(=O)NC1C(=O)NC(CC(N)=O)C(=O)NC2C(=O)NC3C(=O)NC(C(=O)NC(C(=O)O)c4cc(O)cc(O)c4-c4cc3ccc4O)C(OC3CC(C)(N)C(O)C(C)O3)c3ccc(c(Cl)c3)Oc3cc2cc(c3OC2OC(CO)C(O)C(O)C2OC2CC(C)(NCc3ccc(-c4ccccn4)cc3)C(O)C(C)O2)Oc2ccc(cc2Cl)C1O (stereo not drawn) [Compound 137, 4-[2-pyridyl]benzyl] | ≤ 0.06 µg/mL | 8 µg/mL (≈ 4.55 µM) | ≤ 0.06 µg/mL
CNC(CC(C)C)C(=O)NC1C(=O)NC(CC(N)=O)C(=O)NC2C(=O)NC3C(=O)NC(C(=O)NC(C(=O)O)c4cc(O)cc(O)c4-c4cc3ccc4O)C(OC3CC(C)(N)C(O)C(C)O3)c3ccc(c(Cl)c3)Oc3cc2cc(c3OC2OC(CO)C(O)C(O)C2OC2CC(C)(NCc3ccc(-c4ccc([N+](=O)[O-])cc4)cc3)C(O)C(C)O2)Oc2ccc(cc2Cl)C1O (stereo not drawn) [Compound 64, 4-[4-nitrophenyl]benzyl] | 0.5 µg/mL (≈ 0.277 µM) | 2 µg/mL (≈ 1.11 µM) | ≤ 0.06 µg/mL
CNC(CC(C)C)C(=O)NC1C(=O)NC(CC(N)=O)C(=O)NC2C(=O)NC3C(=O)NC(C(=O)NC(C(=O)O)c4cc(O)cc(O)c4-c4cc3ccc4O)C(OC3CC(C)(N)C(O)C(C)O3)c3ccc(c(Cl)c3)Oc3cc2cc(c3OC2OC(CO)C(O)C(O)C2OC2CC(C)(NCc3ccc(OCCC4CCCCC4)cc3)C(O)C(C)O2)Oc2ccc(cc2Cl)C1O (stereo not drawn) [Compound 127, 4-[cyclohexylethoxy]benzyl] | ≤ 0.06 µg/mL | 4 µg/mL (≈ 2.21 µM) | ≤ 0.06 µg/mL
CNC(CC(C)C)C(=O)NC1C(=O)NC(CC(N)=O)C(=O)NC2C(=O)NC3C(=O)NC(C(=O)NC(C(=O)O)c4cc(O)cc(O)c4-c4cc3ccc4O)C(OC3CC(C)(N)C(O)C(C)O3)c3ccc(c(Cl)c3)Oc3cc2cc(c3OC2OC(CO)C(O)C(O)C2OC2CC(C)(NCc3ccc(Oc4cccc(Cl)c4)c([N+](=O)[O-])c3)C(O)C(C)O2)Oc2ccc(cc2Cl)C1O (stereo not drawn) [Compound 87, 4-[3-chlorophenoxy]-3-nitrobenzyl] | ≤ 0.06 µg/mL | 2 µg/mL (≈ 1.08 µM) | ≤ 0.06 µg/mL
CNC(CC(C)C)C(=O)NC1C(=O)NC(CC(N)=O)C(=O)NC2C(=O)NC3C(=O)NC(C(=O)NC(C(=O)O)c4cc(O)cc(O)c4-c4cc3ccc4O)C(OC3CC(C)(N)C(O)C(C)O3)c3ccc(c(Cl)c3)Oc3cc2cc(c3OC2OC(CO)C(O)C(O)C2OC2CC(C)(NCc3ccc(-c4ccccc4)cc3)C(O)C(C)O2)Oc2ccc(cc2)C1O (stereo not drawn) [Compound 185, 4-phenylbenzyl] | ≤ .06 µg/mL | ≤ .06 µg/mL | ≤ .06 µg/mL
CNC(CC(C)C)C(=O)NC1C(=O)NC(CC(N)=O)C(=O)NC2C(=O)NC3C(=O)NC(C(=O)NC(C(=O)O)c4cc(O)cc(O)c4-c4cc3ccc4O)C(OC3CC(C)(N)C(O)C(C)O3)c3ccc(c(Cl)c3)Oc3cc2cc(c3OC2OC(CO)C(O)C(O)C2OC2CC(C)(NCc3ccc(-c4ccc(F)cc4)cc3)C(O)C(C)O2)Oc2ccc(cc2Cl)C1O (stereo not drawn) [Compound 211, 4-[4-flurophenyl]benzyl] | ≤ 0.06 µg/mL | ≤ 0.06 µg/mL | ≤ 0.06 µg/mL
CNC(CC(C)C)C(=O)NC1C(=O)NC(CC(N)=O)C(=O)NC2C(=O)NC3C(=O)NC(C(=O)NC(C(=O)O)c4cc(O)cc(O)c4-c4cc3ccc4O)C(OC3CC(C)(N)C(O)C(C)O3)c3ccc(cc3)Oc3cc2cc(c3OC2OC(CO)C(O)C(O)C2OC2CC(C)(NCc3ccc(Oc4ccccc4)cc3)C(O)C(C)O2)Oc2ccc(cc2)C1O (stereo not drawn) [Compound 184, 4-phenoxybenzyl] | 0.5 µg/mL (≈ 0.293 µM) | 4 µg/mL (≈ 2.34 µM) | 1 µg/mL (≈ 0.586 µM)
